The values that follow come from publication PMC6696238, “Novel Benzothiazole-Based Ureas as 17β-HSD10 Inhibitors, A Potential Alzheimer’s Disease Treatment” (Molecules, 2019).

The target of data set [1] is T1, 17β-HSD10 (Homo sapiens, UniProt Q99714).
T1 sequence (Q99714 1-261): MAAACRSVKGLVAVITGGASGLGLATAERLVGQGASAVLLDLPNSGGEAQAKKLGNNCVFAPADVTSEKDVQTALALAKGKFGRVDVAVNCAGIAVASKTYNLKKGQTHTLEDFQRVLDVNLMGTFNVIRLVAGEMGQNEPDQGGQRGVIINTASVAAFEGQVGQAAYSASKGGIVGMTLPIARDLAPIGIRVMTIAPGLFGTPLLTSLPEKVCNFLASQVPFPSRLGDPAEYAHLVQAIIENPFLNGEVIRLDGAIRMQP
Nature of the data set: orthogonal counter screen: small molecule aggregation (Triton X-100). It is filed as biochemical. On the set-up: made in house. The settings on record: for increase in 17β-HSD10 activity within aggregation assay: in the presence of Triton X-100. From the text: During our enzymatic assay development, it was noted that the assay was susceptible to false positives through redox cycling and aggregation mechanism, therefore, two orthogonal counter screens have been implemented to validate the primary screen results. The addition of the detergent Triton X-100 to the assay buffer prevents the hydrophobic interactions required for aggregation, by which a reduction in inhibition in the presence of Triton X-100 indicates the undesirable inhibitory mode of action whereby, the compound could be potentially inhibiting the enzyme through the indirect sequestration of the protein. […] Given that these three compounds were part of a small series we decided to advance them into the next step of screening.
Orthogonal screening (small molecule aggregation and redox cycling experiments) was carried out as described in our previous work.

Data set [2] deals with HEK293 mts17β-HSD10 cells. The data set can be described thus: Lactate dehydrogenase (LDH) cytotoxicity assay. Type of data set: cell-based. The settings on record: 24 h. How it is done: Lactate dehydrogenase (LDH) is a colorimetric assay routinely used to quantitatively measure LDH released into the media from damaged cells as a biomarker for cellular cytotoxicity and cytolysis. HEK293 mts17β-HSD10 cells were treated with compound (100 and 25 μM) for 24 h before measurements were taken.
Cell cytotoxicity was assessed via the measurement of lactate dehydrogenase leakage into the culture medium using a commercially available kit from Pierce (Thermo Scientific, UK, cat no. 88953). This was carried out in accordance with the kit guidelines, with the activity of LDH being calculated from the change in absorbance at […] as NADH is reduced. HEK293 cells overexpressing mts17β-HSD10 were cultured in phenol-red free media (10% FBS, 1 mM Sodium Pyruvate, 100 units Penicillin, 0.1 mg/mL Streptomycin and 2 mM L-Glutamine) and seeded at a density of 10,000 cells per well (100 µL, 96-well plates). Cells were then treated with compound of interest at 2 concentrations (25 µM and 100 µM in DMSO) in triplicate. Treated cells were then incubated at 37 °C and CO2 (5%) for 24 hours before the LDH assay was performed as per the manufacturer’s instructions. Spontaneous control (water) and maximum control (lysis buffer) used in accordance with the kit guide. Absorbance was measured at 490 nm and 680 nm using the SpectraMaxM2e spectrophotometer (Molecular Devices, San Jose, CA, USA). The measured LDH activity was used to calculate % cytotoxicity using the following equation: (1) % cytotoxicity=(compound treated LDH Activity−Spontaneous LDH Activity)/(Maximum LDH Activity−Spontaneous LDH Activity)×100

Data set [3] addresses T1, 17β-HSD10. The data set can be described thus: (−)-CHANA assay, 17β-HSD10 activity within cells. It is filed as cell-based. On the set-up: mts (prefix as printed); expressed in transfected cells; host or cells: HEK293. The settings on record: for IC50: HEK293 mts17β-HSD10 cells, 20 µM (−)-CHANA, 95% CI; for behaviour in (−)-CHANA assay media: cellular IC50 could not be calculated. As for the experimental part: HEK293 mts17β-HSD10 cells were seeded at a density of 10,000 cells per well (100 µL, 96-well black plates, Greiner Cat no. 655090) in phenol-red free media (10% FBS, 1 mM Sodium Pyruvate, 100 units Penicillin, 0.1 mg/mL Streptomycin and 2 mM L-Glutamine). The media was removed from the cells and replaced with fresh media containing varying concentrations of compound (100 µM–0.098 µM). The fluorogenic probe (−)-CHANA was then added to each well to give a final assay concentration of 20 µM. Fluorescence was immediately measured using the FLUOstar Optima microplate reader (excitation = 380 nm, emission = 520 nm, orbital averaging = 3 mm) and the initial reaction monitored for 3–4 hours. EC50 was calculated from the control - subtracted triplicates using non-linear regression (four parameters) of GraphPad Prism 5 software. Final EC50 and SEM value was obtained as a mean of at least 3 independent measurements.

Data set [4] addresses T1, 17β-HSD10. The data set can be described thus: mechanism of inhibition experiments (Hanes–Woolf kinetics). Type of data set: biochemical. On the set-up: made in house. How it is done: (§1) Compound screening, dose response and mechanism of inhibition experiments were performed as described in Hroch et al. 2016, with the exceptions being an alteration in assay buffer (10 mM Tris HCl (pH 7.4), 150 mM NaCl, 1 mM DTT, 0.005% Tween20, 0.01% BSA) and a change in temperature to 25 °C, to improve enzyme stability and assay reliability as compound solubility improved, as outlined in our previous work.
Figure [S2]: Hanes-Woolf kinetic plots for compounds 5, 6 and 61. Each compound’s mode of inhibition with respect to both Acetoacetyl CoEnzymeA and NADH determined from Hanes -Woolf calculations. The mean values shown with n=3 ± St Dev.
(1 picture or pasted object on this page, not shown here)

Data set [5] concerns the target T1, 17β-HSD10. The data set can be described thus: recombinant 17β-HSD10 enzyme activity assay (primary NADH screen and dose response). On the set-up: made in house. Type of data set: biochemical. The settings on record: for IC50: recombinant enzyme, dose response, 95% CI; for remaining activity at 25 µM: relative remaining activity, 25 μM compound, six independent measurements ± SEM, read-out: 17β-HSD10 activity in the presence of compound at 25 μM (Primary Screen).
Text: In order to reduce attrition rates and improve assay reproducibility we have developed a high throughput screening (HTS) pipeline (Figure 3 [19]). In brief, compounds are screened in the recombinant 17β-HSD10 enzyme activity assay (Table 5, Figure 4). Our best previously published compounds have set the threshold of 40% remaining 17β-HSD10 activity as a minimum standard and if compounds can better this threshold, they are further screened using our orthogonal counter assays, dose response assays and kinetic assessment (Table 5). Finally, if passing these criteria with favourable characteristics, the compounds progress into cellular evaluation through cytotoxicity testing and measuring 17β-HSD10 activity within cells (Table 6).
Full results for the primary nicotinamide adenine dinucleotide (NADH) assay screens are shown in Figure 4 including our four best previously published compounds for comparison (Figure 1).
Purification of 17β-HSD10 protein was performed as described in our previous work.
as §1

Consider `COc1ccc2nc(NC(=O)Nc3ccc(O)c(Br)c3)sc2c1` [Compound 5, 1-(3-Bromo-4-hydroxyphenyl)-3-(6-methoxybenzo[d]thiazol-2-yl)urea], for which the “Orthogonal Counter Screens: Evidence of Aggregation or Redox Cycling” value (“Orthogonal Counter Screens: Evidence” below) in data set [1] is recorded as “None”. In data set [2], the “LDH Cytotoxicity with 25 μM Compound” value is recorded as 13.28 ± 0.55% and the “LDH Cytotoxicity with 100 μM Compound” value is on record as 20.13 ± 4.26%. Besides, in data set [3], the concentration for half-maximal inhibition (IC50) was 10.4 µM. Besides, the “Mechanism of Inhibition with Respect to Both Acetoacetyl-CoA and NADH” value (“Mechanism of Inhibition” for short) in data set [4] was “Mixed”. For the same compound, in data set [5], the IC50 stood at 1.28 µM and the remaining activity at 25 µM was 14.3 ± 1.95%.
In the case of `COc1ccc2nc(NC(=O)Nc3ccc(O)c(I)c3)sc2c1` [Compound 6, 1-(4-Hydroxy-3-iodophenyl)-3-(6-methoxybenzo[d]thiazol-2-yl)urea], the melting point was 241 to 242 °C. Also, the “Orthogonal Counter Screens: Evidence” value in data set [1] is given as “None”. In addition, in data set [2], the “LDH Cytotoxicity with 25 μM Compound” value amounted to 23.54 ± 3.02% and the “LDH Cytotoxicity with 100 μM Compound” value amounted to 23.97 ± 3.32%. This compound also displayed a half-maximal inhibitory concentration (IC50) in data set [3] of 17 µM. For the same compound, in data set [4], the “Mechanism of Inhibition” value is given as “Mixed”. In data set [5], the IC50 was 1.86 µM and the remaining activity at 25 µM amounted to 9.82 ± 2.19%.
Regarding `CC(C)c1ccc2nc(NC(=O)Nc3ccc(O)c(Cl)c3)sc2c1` [Compound 61, 1-(3-Chloro-4-hydroxyphenyl)-3-(6-isopropylbenzo[d]thiazol-2-yl)urea], the melting point is 246 to 248 °C. Besides, the “Orthogonal Counter Screens: Evidence” value in data set [1] is “None”. In data set [2], the “LDH Cytotoxicity with 25 μM Compound” value amounted to 28.83 ± 0.67% and the “LDH Cytotoxicity with 100 μM Compound” value is 55.68 ± 2.55%. The IC50 in data set [3] was 7.88 µM. In data set [4], the “Mechanism of Inhibition” value was “Mixed”. Moreover, in data set [5], the inhibition at 25 µM came to 77.4%, the IC50 came to 5.12 µM and the remaining activity at 25 µM was 36.5 ± 0.53%.
In the case of `CC(C)(C)c1ccc2nc(NC(=O)Nc3ccc(O)c(Cl)c3)sc2c1` [Compound 62, 1-(6-(Tert-butyl)benzo[d]thiazol-2-yl)-3-(3-chloro-4-hydroxyphenyl)urea], the melting point is 238 to 240 °C. Besides, in data set [1], the “Orthogonal Counter Screens: Evidence” value is given as “None”. In data set [2], the “LDH Cytotoxicity with 25 μM Compound” value was determined as 27.25 ± 3.35% and the “LDH Cytotoxicity with 100 μM Compound” value was determined as 64.40 ± 3.62%. This compound also displayed an IC50 in data set [3] of 3.77 µM. Besides, the “Mechanism of Inhibition” value in data set [4] is “Mixed”. In data set [5], the inhibition at 25 µM is 78.4%, the IC50 is 5.29 µM and the remaining activity at 25 µM is 34 ± 2.44%.
Take `CCOc1ccc2nc(NC(=O)Nc3ccc(O)c(Cl)c3)sc2c1` [Compound 63, 1-(3-Chloro-4-hydroxyphenyl)-3-(6-ethoxybenzo[d]thiazol-2-yl)urea]: in data set [2], the “LDH Cytotoxicity with 25 μM Compound” value was 15.98 ± 1.02% and the “LDH Cytotoxicity with 100 μM Compound” value was found to be 18.05± 0.96%. The compound also gave an IC50 in data set [3] of 2.29 µM. Further, the “Mechanism of Inhibition” value in data set [4] was “Mixed”. In addition, in data set [5], the IC50 came to 1.61 µM and the remaining activity at 25 µM came to 28.7 ± 0.38%.
As to `O=C(Nc1ccc(O)c(Cl)c1)Nc1nc2ccc(SC(F)(F)F)cc2s1` [Compound 64, 1-(3-Chloro-4-hydroxyphenyl)-3-(6-((trifluoromethyl)thio)benzo[d]thiazol-2-yl)urea], the melting point is 256 to 258 °C. For the same compound, the “Orthogonal Counter Screens: Evidence” value in data set [1] is on record as “None”. Also, in data set [2], the “LDH Cytotoxicity with 25 μM Compound” value is 22.83 ± 0.63% and the “LDH Cytotoxicity with 100 μM Compound” value is 33.35 ± 2.92%. Moreover, the “behaviour in (−)-CHANA assay media” value in data set [3] is listed as “precipitating within the assay media”. Moreover, in data set [4], the “Mechanism of Inhibition” value is “Mixed”. In data set [5], the half-maximal inhibitory concentration (IC50) came to 5.21 µM and the remaining activity at 25 µM turned out to be 50.5 ± 1.25%.
The compound `N#CSc1ccc2nc(NC(=O)Nc3ccc(O)c(Cl)c3)sc2c1` [Compound 65, 1-(3-Chloro-4-hydroxyphenyl)-3-(6-thiocyanatobenzo[d]thiazol-2-yl)urea] had a melting point of 251 to 253 °C. The “increase in 17β-HSD10 activity within aggregation assay” value in data set [1] is given as 28.5% increase in 17β-HSD10 activity within aggregation assay. In data set [2], the “LDH Cytotoxicity with 25 μM Compound” value is 11.27 ± 0.58% and the “LDH Cytotoxicity with 100 μM Compound” value was 27.41 ± 2.65%. Further, in data set [3], the midpoint of inhibition, the IC50, lay at 88.9 µM. In addition, the “Mechanism of Inhibition” value in data set [4] was “Mixed”. In data set [5], the inhibition at 25 µM was 85.7% and the remaining activity at 25 µM turned out to be 37.83 ± 0.35%.
In the case of `CS(=O)(=O)c1ccc2nc(NC(=O)Nc3ccc(O)c(Cl)c3)sc2c1` [Compound 66, 1-(3-Chloro-4-hydroxyphenyl)-3-(6-(methylsulfonyl)benzo[d]thiazol-2-yl)urea], the “Orthogonal Counter Screens: Evidence” value in data set [1] was “None”. For the same compound, in data set [2], the “LDH Cytotoxicity with 25 μM Compound” value was determined as 13.59 ± 0.66% and the “LDH Cytotoxicity with 100 μM Compound” value came to 17.51± 0.46%. The “behaviour in (−)-CHANA assay media” value in data set [3] is “precipitating within the assay media”. Further, the “Mechanism of Inhibition” value in data set [4] is “Mixed”. In addition, in data set [5], the IC50 was 0.93 µM and the remaining activity at 25 µM came to 21.62 ± 0.21%.
In turn, `O=C(Nc1ccc(O)c(Cl)c1)Nc1nc2ccc(S(=O)(=O)C(F)(F)F)cc2s1` [Compound 67, 1-(3-Chloro-4-hydroxyphenyl)-3-(6-((trifluoromethyl)sulfonyl)benzo[d]thiazol-2-yl)urea] displayed a melting point of 267 to 269 °C. Moreover, the “increase in 17β-HSD10 activity within aggregation assay” value in data set [1] is 12.6% increase in 17β-HSD10 activity within aggregation assay. Further, in data set [2], the “LDH Cytotoxicity with 25 μM Compound” value is reported as 22.68 ± 2.68% and the “LDH Cytotoxicity with 100 μM Compound” value is recorded as 36.05 ± 1.75%. The “behaviour in (−)-CHANA assay media” value in data set [3] is “precipitating within the assay media”. Besides, the “Mechanism of Inhibition” value in data set [4] was “Mixed”. In data set [5], the IC50 was determined as 2.69 µM and the remaining activity at 25 µM amounted to 29.1 ± 0.32%.
